Measured values taken from patent US20030215462A1, “Use of UGT inhibitors to increase bioavailability” (priority 2001, published 2003).

Columns and labels:
[1] = system: pooled human jejunum microsomes; assay: Glucuronidation of UGT substrates by pooled human jejunum microsomes; conditions: human jejunum microsomes (table footnote)
UGT1A10 = target: T1, UGT1A10 (Homo sapiens, UniProt Q9HAW8); assay: Substrate glucuronidation by recombinant UGT1A10; conditions: 7-HFC 50 μM
T1 sequence (Q9HAW8 26-530): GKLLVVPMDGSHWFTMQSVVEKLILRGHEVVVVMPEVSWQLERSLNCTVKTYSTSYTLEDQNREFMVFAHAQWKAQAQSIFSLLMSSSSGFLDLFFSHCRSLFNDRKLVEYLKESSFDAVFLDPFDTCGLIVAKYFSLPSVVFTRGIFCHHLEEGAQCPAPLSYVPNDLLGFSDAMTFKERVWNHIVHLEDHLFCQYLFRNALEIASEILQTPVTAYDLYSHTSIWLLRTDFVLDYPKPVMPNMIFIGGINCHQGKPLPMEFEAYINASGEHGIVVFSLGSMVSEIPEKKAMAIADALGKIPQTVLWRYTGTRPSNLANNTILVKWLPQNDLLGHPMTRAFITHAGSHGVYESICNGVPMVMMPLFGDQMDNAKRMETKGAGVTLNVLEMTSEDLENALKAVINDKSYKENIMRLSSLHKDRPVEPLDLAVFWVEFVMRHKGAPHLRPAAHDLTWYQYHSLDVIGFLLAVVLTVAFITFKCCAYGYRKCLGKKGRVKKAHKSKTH

- 7-HFC metabolism rate [1]: 6,829 ± 61 pmol/min/mg
- 7-HFC glucuronidation rate (UGT1A10; UGT1A10 Bacculosomes 250 μg/ml): 553 ± 40 pmol/min/mg protein
- 7-HFC glucuronidation rate (UGT1A10; UGT1A10 Supersomes 250 μg/ml): 460 ± 2 pmol/min/mg protein
Compound: O=c1cc(C(F)(F)F)c2ccc(O)cc2o1 [7-HFC, 7-hydroxy-4-(trifluoromethyl)coumarin]
